Data on nine molecules can be found in patent US20260083743A1, “NUCLEOSIDE DERIVATIVE FOR PREVENTING AND TREATING INFLAMMATION AND APPLICATION THEREOF” (WEST CHINA HOSPITAL OF SICHUAN UNIVERSITY, priority 2019, published 2026).

For one data set, the system named is C57 mice. Briefly: Toxicity test, 180 consecutive days by gavage in C57 mice. Type of data set: in vivo. Conditions: 100 mg/kg/D for 180 consecutive days by gavage. The method, then:
In this example, the toxicities of compounds 1-19 prepared in example 1 were analyzed.
C57 mice were given compounds 1-19 at a dose of 100 mg/kg/D for 180 consecutive days by gavage. One hour after the last administration of the drug, the mice were anesthetized by intraperitoneal injection of sodium pentobarbital (40 mg/kg), placed on a constant temperature hot plate at 37±1° C., blood was taken by cardiac puncture or pathological sections were made to detect the side effects (gastrointestinal reaction, nervous system toxicity, hematological toxicity, allergic reaction, nephrotoxicity, hepatotoxicity, rash and asthma) The side effects of aspirin, ibuprofen, indomethacin, phenylbutazone, diclofenac, piroxicam and glucocorticoid groups were investigated according to the same administration method as compounds 1-19.

The next data set deals with mouse hepatitis model. Briefly: Improvement effect on hepatitis, concanavalin A (ConA) mouse hepatitis model. Type of data set: in vivo, Blab/c mice. Conditions: gavage 50 mg/kg, n = 10. The method, then: In this example, the improvement effect of compounds 1 19 prepared in example 1 on […] measured. (1) Animals: Adult and Healthy Male Blab/c Mice, 25 30 g. […] The blank control group was injected with equal volume of isotonic saline. After modeling, indomethacin and compounds 1 19 were given by gavage every day at the dose of 50 mg/kg. The blank control group and the model control group were given equal volume of isotonic saline. Eyeball blood and liver tissue were taken at 6 h, 12 h, 24 h and 48 h after administration. The levels of serum alanine aminotransferase (ALT) and aspartate aminotransferase (AST) were measured.

A further data set relates to arthritis model. Put plainly: Improvement effect on arthritis, sodium iodoacetate knee joint model in SD rats. Type of data set: in vivo. Also noted: Pathological tissue score (joint): scale not given here. Conditions: gavage every day 100 mg/kg/d; 4th week after operation; n = 10. The method, then: In this example, the improvement effect of compounds 1˜19 prepared in example 1 on arthritic was measured. (1) Animals: SD rats, four rates in one cage, were fed under the conditions of constant temperature (25±2° C.) and illumination control (12 h day/night circulation). The animals were fed with standard feed, and fed for at least 7 days to adapt environment before the experiment. […] (3) SD rats were fasted for 12 hours before operation, and weighed and recorded prior to operation. The blank control group was not treated any more. […] After anesthesia, they were fixed in the supine position. 0.1 ml of 1 g/L sodium iodoacetate solution was injected into the knee joint. From the fifth day, the animals were driven to run for 30 minutes every day, and they were allowed to move freely in the cage the rest of the time. After modeling, indomethacin and compounds 1˜19 were given by gavage every day at the dose of 100 mg/kg/d. The blank control group and the model control group were given equal volume of isotonic saline. At the 4th week after operation, the articular fluid of rats in each group was extracted to measure the content of MMP-13. The rats were killed, and the subchondral bone plate of the inner condyle of the tibia of the right knee was cut and processed into specimens, and pathological scores were made.

The subject of data set [1] is sodium taurocholate-induced pancreatitis model. Put plainly: Improvement effect on pancreatitis, sodium taurocholate-induced model in mice. Type of data set: in vivo, Blab/c mice. Also noted: Pancreatic histopathological injury score: scale not given here. As to conditions: 17.5 mg/kg caudal vein 1 h, 3 h and 6 h after model construction; after 24 hours; n = 10. An excerpt: In this example, the improvement effect of compounds 1 19 prepared in example 1 on […] measured. (1) Animals: Adult and Healthy Male Blab/c Mice, 25 30 g. […] A model was made with sodium taurocholate. […] After anesthesia, the surgical site was sterilized with an alcohol cotton ball. The sterile gauze was placed on the surgical site. A laparotomy was made at the width of two fingers under the xiphoid process. After seeing the liver, an incision was made, the cotton swab soaked in normal saline was stretched into the enterocoelia, the duodenum was sought on the back of the liver, turned out and placed on the sterile gauze, the pancreaticobiliary duct and duodenal papilla were sought, and the needle of 1 mL syringe was used to pierce a hole on the along the direction of the nipple, a 24 G indwelling needle tube was inserted into the pancreatic duct along the nipple, and the common bile duct below the liver was closed with an arterial vascular clip, with a dose of 0.1 mL/100 g and 0.1 mL/min inject sodium taurocholate with a concentration of 3.8% at a flow rate. During this process, pay attention to adding saline to the exposed pancreas and duodenum to keep it moist. After the injection, the tube was slowly taken out and the bile duct was continued to be closed. The main tube was removed from the vascular artery clip 3 minutes later, the duodenum was also accommodated, and the abdominal cavity was sutured in double layers. The blank control group was injected with equal volume of isotonic saline. […] The blank control group and the model control group were given equal volume of isotonic saline. After 24 hours, pancreatic tissue and blood samples were taken, and the pancreatic histopathological injury score and the level of pancreatic amylase in serum were evaluated.

As to `CC(C)Cc1ccc(C(C)C(=O)O)cc1` (stereo not shown) [Ibuprofen, ibuprofen], in the data set with C57 mice, the “Occurrence rate of side effects” value amounted to 20%.

Turning to `CC(=O)Oc1ccccc1C(=O)O` [Aspirin, aspirin], in the data set with C57 mice, the “Occurrence rate of side effects” value came out at 20%.

As for `CN1C(C(=O)Nc2ccccn2)=C(O)c2ccccc2S1(=O)=O` [Piroxicam, piroxicam], in the data set on C57 mice, the “Occurrence rate of side effects” value was found to be 20%.

As to `CCCCC1C(=O)N(c2ccccc2)N(c2ccccc2)C1=O` [Baotaisong, phenylbutazone], the “Occurrence rate of side effects” value in the data set on C57 mice was determined as 20%.

Turning to `COc1ccc2c(c1)c(CC(=O)O)c(C)n2C(=O)c1ccc(Cl)cc1` [Indometacin, indometacin, reference compound], the “Aspartate aminotransferase (AST)” value is on record as 220 ± 19 U/L with mouse hepatitis model (6 h after administration), 780 ± 82 U/L in the data set with mouse hepatitis model (12 h after administration), 1021 ± 103 U/L in the data set with mouse hepatitis model (24 h after administration) and 870 ± 91 U/L in the data set with mouse hepatitis model (48 h after administration). For the same molecule, the “Serum alanine aminotransferase (ALT)” value in the data set on mouse hepatitis model (6 h after administration) is 465 ± 43 U/L; with mouse hepatitis model (12 h after administration), 1232 ± 113 U/L; in the data set with mouse hepatitis model (24 h after administration), 2165 ± 203 U/L; with mouse hepatitis model (48 h after administration), 1287 ± 133 U/L. In addition, the “MMP-13 content in joint fluid” value in the data set on arthritis model stood at 195 ± 8 mg/L. Further, the “Pathological tissue score (joint)” value in the data set on arthritis model was found to be 2.1 ± 0.3. Besides, the “Occurrence rate of side effects” value in the data set on C57 mice is 20%.

Consider `O=C(O)Cc1ccccc1Nc1c(Cl)cccc1Cl` [Diclofenac, diclofenac], for which, in the data set on C57 mice, the “Occurrence rate of side effects” value is listed as 20%.

`CC(C)n1cnc2c(=O)[nH]cnc21` [Compound 6, 9-isopropyl hypoxanthine]: in the data set on mouse hepatitis model (6 h after administration), the “Aspartate aminotransferase (AST)” value amounted to 49 ± 7 U/L and the “Serum alanine aminotransferase (ALT)” value amounted to 56 ± 5 U/L. In the data set on mouse hepatitis model (12 h after administration), the “Aspartate aminotransferase (AST)” value is 86 ± 8 U/L and the “Serum alanine aminotransferase (ALT)” value is 85 ± 6 U/L. In the data set on mouse hepatitis model (24 h after administration), the “Aspartate aminotransferase (AST)” value is 103 ± 9 U/L and the “Serum alanine aminotransferase (ALT)” value worked out at 136 ± 16 U/L. Moreover, in the data set on mouse hepatitis model (48 h after administration), the “Aspartate aminotransferase (AST)” value is reported as 84 ± 8 U/L and the “Serum alanine aminotransferase (ALT)” value is recorded as 103 ± 13 U/L. In addition, in the data set on arthritis model, the “MMP-13 content in joint fluid” value is given as 90 ± 8 mg/L and the “Pathological tissue score (joint)” value is on record as 0.3 ± 0.4. Also, in data set [1], the “Amylopsin (pancreatic amylase level in serum)” value (from here on “Amylopsin”) is given as 2 ± 1 KU/L and the “Pancreatic histopathological injury score” value was 0.4 ± 0.1.

As to `CC(C)n1c(=O)c2c(ncn2C)n(C)c1=O` [Compound 2, 1-isopropyl-3,7-dimethylxanthine], in the data set on mouse hepatitis model (6 h after administration), the “Aspartate aminotransferase (AST)” value is 53 ± 7 U/L and the “Serum alanine aminotransferase (ALT)” value turned out to be 59 ± 8 U/L. Besides, in the data set with mouse hepatitis model (12 h after administration), the “Aspartate aminotransferase (AST)” value was 89 ± 8 U/L and the “Serum alanine aminotransferase (ALT)” value was determined as 98 ± 6 U/L. Besides, in the data set with mouse hepatitis model (24 h after administration), the “Aspartate aminotransferase (AST)” value was determined as 112 ± 10 U/L and the “Serum alanine aminotransferase (ALT)” value is 142 ± 12 U/L. Also, in the data set with mouse hepatitis model (48 h after administration), the “Aspartate aminotransferase (AST)” value worked out at 99 ± 9 U/L and the “Serum alanine aminotransferase (ALT)” value is 112 ± 13 U/L. Also, in the data set with arthritis model, the “MMP-13 content in joint fluid” value amounted to 92 ± 8 mg/L and the “Pathological tissue score (joint)” value was 0.3 ± 0.4. Moreover, in data set [1], the “Amylopsin” value worked out at 4 ± 2 KU/L and the “Pancreatic histopathological injury score” value stood at 0.6 ± 0.2.

Turning to `CC(C)C(=O)OCCn1c(=O)c2c(ncn2C)n(C)c1=O` [Compound 10, 1-(isopropyl acid-2-ethyl)-3,7-dimethylxanthine], in the data set on mouse hepatitis model (6 h after administration), the “Aspartate aminotransferase (AST)” value was found to be 87 ± 9 U/L and the “Serum alanine aminotransferase (ALT)” value was determined as 83 ± 8 U/L. Besides, in the data set with mouse hepatitis model (12 h after administration), the “Aspartate aminotransferase (AST)” value was found to be 167 ± 19 U/L and the “Serum alanine aminotransferase (ALT)” value is given as 132 ± 13 U/L. Moreover, in the data set with mouse hepatitis model (24 h after administration), the “Aspartate aminotransferase (AST)” value is 189 ± 15 U/L and the “Serum alanine aminotransferase (ALT)” value was 186 ± 19 U/L. Besides, in the data set with mouse hepatitis model (48 h after administration), the “Aspartate aminotransferase (AST)” value was found to be 176 ± 17 U/L and the “Serum alanine aminotransferase (ALT)” value is 154 ± 17 U/L. In the data set on arthritis model, the “MMP-13 content in joint fluid” value is recorded as 91 ± 8 mg/L and the “Pathological tissue score (joint)” value is reported as 0.7 ± 0.4. In data set [1], the “Amylopsin” value is 7 ± 5 KU/L and the “Pancreatic histopathological injury score” value was determined as 0.6 ± 0.4.
